Test results as given in patent US4954487A, “Penetrating topical pharmaceutical compositions” (The Procter & Gamble Company, priority 1989, dated 1990).

Test: Solubility of envelope-disordering compounds in the diol compounds
Conditions: typical compositions

In the case of `CCCCCCCCCCO` [n-decanol], the “soluble in the diol compounds / same compositions up to” value is reported as “up to 50 % by weight”.
